Measured values reported in ChEMBL document CHEMBL2311248, “Discovery of potent myeloid cell leukemia 1 (Mcl-1) inhibitors using fragment-based methods and structure-based design” (J Med Chem, 2013).

How the values were obtained:
[1] = molecular target: Bcl-2-like protein 1 (Homo sapiens, UniProt Q07817)
[2] = molecular target: Apoptosis regulator Bcl-2 (Homo sapiens, UniProt P10415)
[3] = molecular target: Induced myeloid leukemia cell differentiation protein Mcl-1 (Homo sapiens, UniProt Q07820)
Sequence of Induced myeloid leukemia cell differentiation protein Mcl-1 (Q07820 whole entry): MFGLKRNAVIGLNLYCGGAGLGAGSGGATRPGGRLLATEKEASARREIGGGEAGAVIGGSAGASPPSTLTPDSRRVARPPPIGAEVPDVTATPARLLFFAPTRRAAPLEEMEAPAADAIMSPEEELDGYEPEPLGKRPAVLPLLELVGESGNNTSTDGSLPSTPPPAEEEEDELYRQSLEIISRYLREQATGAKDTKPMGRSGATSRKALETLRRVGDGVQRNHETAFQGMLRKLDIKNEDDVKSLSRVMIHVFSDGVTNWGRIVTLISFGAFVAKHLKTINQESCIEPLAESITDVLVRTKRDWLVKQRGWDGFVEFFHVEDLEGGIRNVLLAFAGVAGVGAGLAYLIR

Sequence of Apoptosis regulator Bcl-2 (P10415 whole entry): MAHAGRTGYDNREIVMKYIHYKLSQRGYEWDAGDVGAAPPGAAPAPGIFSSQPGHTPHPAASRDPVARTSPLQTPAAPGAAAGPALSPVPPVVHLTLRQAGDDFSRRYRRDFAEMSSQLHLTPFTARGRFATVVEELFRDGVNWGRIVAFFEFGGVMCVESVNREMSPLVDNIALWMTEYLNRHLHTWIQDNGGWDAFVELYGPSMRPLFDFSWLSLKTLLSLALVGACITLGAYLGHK
Sequence of Bcl-2-like protein 1 (Q07817 whole entry): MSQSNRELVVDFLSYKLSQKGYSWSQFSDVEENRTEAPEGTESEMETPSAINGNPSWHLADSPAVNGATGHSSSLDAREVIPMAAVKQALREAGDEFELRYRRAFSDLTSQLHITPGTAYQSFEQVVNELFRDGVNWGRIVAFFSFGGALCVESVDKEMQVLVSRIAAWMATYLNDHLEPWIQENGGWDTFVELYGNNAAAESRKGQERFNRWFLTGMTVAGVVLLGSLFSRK

Row | SMILES | Ki [3] [µM] | Ki [1] [µM] | Ki [2] [µM]
1 | O=C(O)c1sc2cccc(Cl)c2c1Cl |  | > 1000 | > 1000
2 | Cc1cc(OCC(=O)O)ccc1Cl | 103 | > 1000 | > 1000
3 | Cc1cc(OCCCc2c(C(=O)O)sc3cc(Cl)ccc23)cc(C)c1Cl |  | 4.1 | 0.8
4 | O=C(O)c1sc2cc(Cl)ccc2c1CCCOc1cccc2ccccc12 |  |  | 0.96
5 | Cc1cc(OCCCn2c(C(=O)O)cc3ccccc32)cc(C)c1Cl | 0.41 |  | 
6 | Cc1cc(OCCCc2c(C(=O)O)[nH]c3ccccc23)ccc1Cl |  | > 15 | 9.1
7 | Cc1cc(OCCCc2c(C(=O)O)[nH]c3ccccc23)cc(C)c1Cl |  | > 15 | 5.3
8 | Cc1cc(OCCCc2c(C(=O)O)[nH]c3cc(Cl)ccc23)ccc1Cl |  | > 15 | 1.4
9 | O=C(O)c1[nH]c2cc(Cl)ccc2c1CCCOc1cccc2ccccc12 |  | 6.8 | 0.96
10 | O=C(O)c1[nH]c2cc(Cl)ccc2c1CCCOc1cccc2c1CCCC2 | 0.066 |  | 
11 | Cc1cc(OCCCc2c(C(=O)O)n(C)c3ccccc23)cc(C)c1Cl |  | > 15 | 7.4
12 | Cn1c(C(=O)O)c(CCCOc2cccc3ccccc23)c2ccccc21 |  | > 15 | > 15
13 | Cc1c(C(=O)O)oc2c(C)cccc12 |  | > 1000 | > 1000
14 | Cc1cccc2c(-c3ccccc3)c(C(=O)O)[nH]c12 |  | > 1000 | > 1000
15 | Cc1cc(OCCC(=O)O)cc(C)c1Cl | 60 | > 1000 | > 1000
16 | c1ccc2c(CSc3ncn[nH]3)cccc2c1 | 86 | > 1000 | > 1000
17 | O=C(O)c1oc2ccccc2c1CCc1cccc2ccccc12 | 9.5 |  | 
18 | O=C(O)c1oc2ccccc2c1CCCc1cccc2ccccc12 | 14.6 |  | 
19 | O=C(O)c1oc2ccccc2c1CCCOc1cccc2ccccc12 |  |  | 4.3
20 | Cc1ccc2c(Cl)c(C(=O)O)sc2c1 |  | 230 | > 1000
21 | O=C(O)c1cc2ccccc2o1 | > 1000 |  | 
22 | O=C(O)c1cc2ccccc2[nH]1 [INDOLE-2-CARBOXYLIC ACID] | > 1000 |  | 

Further lines, with some results ahead:

Row | Ki [3] [µM] | SMILES | Ki [1] [µM] | Ki [2] [µM]
23 | 0.29 | O=C(O)c1c(CCCOc2cccc3ccccc23)c2ccccc2n1Cc1ccccc1 | > 15 | > 15
24 | 1.2 | Cc1cc(OCCCn2c(C(=O)O)cc3ccccc32)ccc1Cl |  | 
25 | 0.47 | O=C(O)c1cc2ccccc2n1CCCOc1cccc2ccccc12 |  | 
26 | > 500 | NC(=O)c1cc2ccccc2n1CCCOc1cccc2ccccc12 |  | 
27 | 12.5 | O=C(O)c1sc2ccccc2c1CCc1cccc2ccccc12 |  | 
28 | 9.6 | O=C(O)c1sc2ccccc2c1CCCc1cccc2ccccc12 |  | 
